Experimental data published in US7893288B2, “Poly-halogenated triazapentadiene compositions” (Board of Regents, The University of Texas System, priority 2007, dated 2011).
In brackets after ≈: the same amount, converted by molar mass. Several values for one entry are separate records, joined by “and”; a condition that tells them apart may be missing. Equal values may be shown once.

Assays:
Type in all cases: cell-based
[1] = test system: Staphylococcus aureus (ATCC 25923); assay: Disk sensitivity test (modified Kirby-Bauer), S. aureus;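 also: Compound-loaded filter disks on LB agar plates seeded with a confluent bacterial lawn, compound dissolved in DMSO, plates kept overnight at 37 °C, then inhibition zone around disk measured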
Description: (§2) Filter disks were provided as sterile filter paper (about 6 mm in diameter) and spotted with 20 μL of a selected compound. Each compound was initially dissolved in dimethylsulfoxide (DMSO); any subsequent dilutions were also made in DMSO. Each filter was placed on an LB agar plate spread with 100 μL of a bacterial culture that had been grown overnight in suitable LB broth. Plates were incubated overnight at 37° C., after which, the extent of growth inhibition around each filter disk was measured. Bacterial strains included Staphylococcus aureus (ATCC 25923), Pseudomonas aeruginosa PAO1, Bacillus subtilis W168 and Escherichia coli HB101. […] The latter two strains are non-pathogenic Gram-positive and Gram-negative bacterial strains, respectively.

[2] = test system: Bacillus subtilis W168; assay: Disk sensitivity test (modified Kirby-Bauer), B. subtilis;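 also: Compound-loaded filter disks on LB agar plates seeded with a bacterial lawn, plates held overnight at 37 °C, then the clear zone around each disk measured, compounds in DMSO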
[3] = test system: Pseudomonas aeruginosa PAO1; assay: Disk sensitivity test (modified Kirby-Bauer), P. aeruginosa;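 also: Compound-loaded filter disks on LB agar lawns, DMSO as solvent, zone of inhibition around each disk read after overnight incubation at 37 °C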
Description: as §2

[4] = test system: Escherichia coli HB101; assay: Disk sensitivity test (modified Kirby-Bauer), E. coli;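 also: filter disk loaded with compound in DMSO laid on an LB agar bacterial lawn, kept overnight at 37 °C, then the inhibition zone around the disk is measured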
Description: as §2

[5] = test system: Staphylococcus aureus (ATCC 25923); assay: Minimum inhibitory concentration in LB broth, S. aureus; details: for Relative to AgNO3: efficacy per mole from MIC values
[6] = test system: Bacillus subtilis W168; assay: Minimum inhibitory concentration in LB broth, B. subtilis; details: for Relative to AgNO3: efficacy per mole from MIC values
[7] = test system: Pseudomonas aeruginosa PAO1; assay: Minimum inhibitory concentration in LB broth, P. aeruginosa; details: for Relative to AgNO3: efficacy per mole from MIC values
[8] = test system: Escherichia coli HB101; assay: Minimum inhibitory concentration in LB broth, E. coli; details: for Relative to AgNO3: efficacy per mole from MIC values;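 as to all read-outs here: broth dilution MIC, test compounds first taken up in DMSO, then serially diluted in LB medium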
[9] = test system: Gram-positive bacteria (e.g., S. aureus and B. subtilis); assay: Growth inhibition of Gram-positive bacteria, summary of TABLES 6-19
Description: (§1) The new class of fluorinated triazapentadiene compounds with and without metal complexation as described herein were analyzed for antibacterial activity against several bacterial strains (both Gram positive and Gram negative). Methods for antimicrobial analysis included a modified Kirby-Bauer method and a determination of their minimum inhibitory concentrations. In brief, the modified Kirby-Bauer method relied on placement of a filter disk impregnated with a desired compound on a solid growth medium. Bacteria were grown to a confluent lawn and the extent of growth inhibition was measured (e.g., as an extent/percentage of a clear zone on the disk and/or solid medium).
Filter disks were provided as sterile filter paper (about 6 mm in diameter) and spotted with 20 μL of a selected compound. Each compound was initially dissolved in dimethylsulfoxide (DMSO); any subsequent dilutions were also made in DMSO. Each filter was placed on an LB agar plate spread with 100 μL of a bacterial culture that had been grown overnight in suitable LB broth. Plates were incubated overnight at 37° C., after which, the extent of growth inhibition around each filter disk was measured. Bacterial strains included Staphylococcus aureus (ATCC 25923), Pseudomonas aeruginosa PAO1, Bacillus subtilis W168 and Escherichia coli HB101. […]

[10] = test system: Gram positive and Gram negative bacteria; assay: Antimicrobial activity, summary of TABLES 16-18
Description: as §1
For MIC assessment, compounds were initially dissolved in DMSO and serial dilutions of soluble compounds were made in LB broth.

For Cc1cc(C)c(N=C(N=C(Nc2c(C)cc(C)cc2C)C(F)(F)C(F)(F)C(F)(F)F)C(F)(F)C(F)(F)C(F)(F)F)c(C)c1 [[N{(C3F7)C(Mes)N}2]H], the “Diameter of the zone of growth inhibition” value ([1]; 5.7 × 10^0 mM) was 7.5 mm, the “Diameter of the zone of growth inhibition” value ([1]; 5.7 × 10^1 mM) was 9.5 mm and the “Diameter of the zone of growth inhibition” value ([1]; 5.7 × 10^−1 mM) was 6.0 (NZ) mm. The “Diameter of the zone of growth inhibition” value ([1]; 5.7 × 10^−2 mM) was 6.0 (NZ) mm, the “Diameter of the zone of growth inhibition” value ([1]; 5.7 × 10^−3 mM) was 6.0 (NZ) mm and the “Diameter of the zone of growth inhibition” value ([2]; 5.7 × 10^0 mM) was 8.0 mm. For the same compound, the “Diameter of the zone of growth inhibition” value ([2]; 5.7 × 10^1 mM) was 9.0 mm, the “Diameter of the zone of growth inhibition” value ([2]; 5.7 × 10^−1 mM) was 6.0 (NZ) mm and the “Diameter of the zone of growth inhibition” value ([2]; 5.7 × 10^−2 mM) was 6.0 (NZ) mm. For the same compound, the “Diameter of the zone of growth inhibition” value ([2]; 5.7 × 10^−3 mM) was 6.0 (NZ) mm, the “Diameter of the zone of growth inhibition” value ([3]; 5.7 × 10^0 mM) was 8.5 mm and the “Diameter of the zone of growth inhibition” value ([3]; 5.7 × 10^1 mM) was 9.0 mm. For the same compound, the “Diameter of the zone of growth inhibition” value ([3]; 5.7 × 10^−1 mM) was 7.5 mm, the “Diameter of the zone of growth inhibition” value ([3]; 5.7 × 10^−2 mM) was 7.5 mm and the “Diameter of the zone of growth inhibition” value ([3]; 5.7 × 10^−3 mM) was 7.0 mm. The “Diameter of the zone of growth inhibition” value ([4]; 5.7 × 10^0 mM) was 8.0 mm, the “Diameter of the zone of growth inhibition” value ([4]; 5.7 × 10^1 mM) was 10.0 mm and the “Diameter of the zone of growth inhibition” value ([4]; 5.7 × 10^−1 mM) was 7.5 mm. For the same compound, the “Diameter of the zone of growth inhibition” value ([4]; 5.7 × 10^−2 mM) was 7.0 mm, the “Diameter of the zone of growth inhibition” value ([4]; 5.7 × 10^−3 mM) was 7.0 mm and the MIC [5] was 2252.38 μg/ml and 3.50 mM. For the same compound, the “Relative to AgNO3” value [5] was 2.10 × 10^−2, the MIC [6] was 2.69 mM (≈ 1730 µg/mL) and the “Relative to AgNO3” value [6] was 5.46 × 10^−2. The MIC [7] was 1402.43 μg/ml and 2.18 mM, the “Relative to AgNO3” value [7] was 8.44 × 10^−3 and the MIC [8] was 1126.88 μg/ml and 1.75 mM. For the same compound, the “Relative to AgNO3” value [8] was 3.37 × 10^−2 and the “antibacterial activity against Gram-positive organisms (in words)” value [9] was “less effective”.
For Fc1cccc(C(F)(F)F)c1N=C(N=C(Nc1c(F)cccc1C(F)(F)F)C(F)(F)C(F)(F)C(F)(F)F)C(F)(F)C(F)(F)C(F)(F)F [[N{(C3F7)C(2-F,6-(CF3)C6H3)N}2]H], the “Diameter of the zone of growth inhibition” value ([1]; 5.7 × 10^0 mM) was 36.0 mm, the “Diameter of the zone of growth inhibition” value ([1]; 5.7 × 10^1 mM) was 47.5 mm and the “Diameter of the zone of growth inhibition” value ([1]; 5.7 × 10^−1 mM) was 34.0 mm. For the same compound, the “Diameter of the zone of growth inhibition” value ([1]; 5.7 × 10^−2 mM) was 9.0 mm, the “Diameter of the zone of growth inhibition” value ([1]; 5.7 × 10^−3 mM) was 8.0 mm and the “Diameter of the zone of growth inhibition” value ([1]; 5.7 × 10^−4 mM) was 6.0 (NZ) mm. For the same compound, the “Diameter of the zone of growth inhibition” value ([1]; 5.7 × 10^−5 mM) was 6.0 (NZ) mm, the “Diameter of the zone of growth inhibition” value ([2]; 5.7 × 10^0 mM) was 85.0 mm and the “Diameter of the zone of growth inhibition” value ([2]; 5.7 × 10^1 mM) was 100.0 mm. The “Diameter of the zone of growth inhibition” value ([2]; 5.7 × 10^−1 mM) was 50.0 mm, the “Diameter of the zone of growth inhibition” value ([2]; 5.7 × 10^−2 mM) was 30.0 mm and the “Diameter of the zone of growth inhibition” value ([2]; 5.7 × 10^−3 mM) was 13.5 mm. For the same compound, the “Diameter of the zone of growth inhibition” value ([2]; 5.7 × 10^−4 mM) was 7.0 mm, the “Diameter of the zone of growth inhibition” value ([2]; 5.7 × 10^−5 mM) was 8.0 mm and the “Diameter of the zone of growth inhibition” value ([2]; 5.7 × 10^−6 mM) was 8.0 mm. The “Diameter of the zone of growth inhibition” value ([2]; 5.7 × 10^−7 mM) was 7.5 mm, the “Diameter of the zone of growth inhibition” value ([3]; 5.7 × 10^0 mM) was 8.5 mm and the “Diameter of the zone of growth inhibition” value ([3]; 5.7 × 10^1 mM) was 9.0 mm. The “Diameter of the zone of growth inhibition” value ([3]; 5.7 × 10^−1 mM) was 8.0 mm, the “Diameter of the zone of growth inhibition” value ([3]; 5.7 × 10^−2 mM) was 8.0 mm and the “Diameter of the zone of growth inhibition” value ([3]; 5.7 × 10^−3 mM) was 8.0 mm. For the same compound, the “Diameter of the zone of growth inhibition” value ([3]; 5.7 × 10^−4 mM) was 7.0 mm, the “Diameter of the zone of growth inhibition” value ([3]; 5.7 × 10^−5 mM) was 6.0 (NZ) mm and the “Diameter of the zone of growth inhibition” value ([4]; 5.7 × 10^0 mM) was 8.5 mm. For the same compound, the “Diameter of the zone of growth inhibition” value ([4]; 5.7 × 10^1 mM) was 9.0 mm, the “Diameter of the zone of growth inhibition” value ([4]; 5.7 × 10^−1 mM) was 8.0 mm and the “Diameter of the zone of growth inhibition” value ([4]; 5.7 × 10^−2 mM) was 7.0 mm. The “Diameter of the zone of growth inhibition” value ([4]; 5.7 × 10^−3 mM) was 7.0 mm, the “Diameter of the zone of growth inhibition” value ([4]; 5.7 × 10^−4 mM) was 7.0 mm and the “Diameter of the zone of growth inhibition” value ([4]; 5.7 × 10^−5 mM) was 7.0 mm. The MIC [5] was 1.55 μg/ml and 1.06 × 10^−3 mM, the “Relative to AgNO3” value [5] was 34.71 and the MIC [6] was 1.60 × 10^−1 μg/ml and 2.19 × 10^−4 mM. The “Relative to AgNO3” value [6] was 671.23, the MIC [7] was 2912.70 μg/ml and 3.98 mM and the “Relative to AgNO3” value [7] was 4.62 × 10^−3. For the same compound, the MIC [8] was 2912.70 μg/ml and 3.98 mM, the “Relative to AgNO3” value [8] was 1.48 × 10^−2 and the “antimicrobial activity (in words)” value [10] was “Effective”.
